Results as given in patent US5409933A, “Quinoline derivatives and processes for preparing the same” (priority 1993, dated 1995).
Structures can show the parent of a compound that is named as a salt. Where two headings read alike, the source gives them in different places.

Assays:
Test in all cases: In Vitro Anti-Bacterial Activity Test (MIC, agar dilution)
Type in all cases: cell-based
[1] = system: Enterobacter cloacae 1321E
Protocol: (§1) The above in vitro antibacterial activity test was carried out in accordance with the agar culture medium dilution method (Hoechst 345) by using Muller-Hinton agar medium to determine the minimum inhibitory concentration (MIC).
(§2) The strains having 10^7 C.F.U./ml were inoculated on the culture medium, and the growth of the strains was observed after incubating them at 37° C. for 18 hours, in which ciprofloxacin was used as a control antibacterial agent. In this test, twenty typical strains were used.

Enterobacter cloacae P99 = conditions: Enterobacter cloacae, P99, 18 h
Protocol: as §1, §2

Escherichia coli 078 = system: Escherichia coli 078
Protocol: as §1, §2

Escherichia coli 1507E = conditions: Muller-Hinton agar, 37° C.
Protocol: as §1, §2

Escherichia coli DC0 = conditions: Muller-Hinton agar, 37° C., 18 hours, read-out: MIC
Protocol: as §1, §2

Escherichia coli DC2 = conditions: Escherichia coli, DC2, 18 h
Protocol: as §1, §2

Escherichia coli TEM = conditions: Escherichia coli, 18 h, Muller-Hinton agar, 37° C.
Protocol: as §1, §2

[2] = system: Klebsiella aerogenes 1522E; conditions: Klebsiella aerogenes, 1522E, 18 h
Protocol: as §1, §2

Klebsiella oxytoca 1082E = conditions: Klebsiella oxytoca 1082E; Muller-Hinton agar, 37° C., 18 hours; read-out: MIC
Protocol: as §1, §2

[3] = system: Pseudomonas aeruginosa 1592E; conditions: Muller-Hinton agar, 37° C., 18 hours, read-out: MIC
Protocol: as §1, §2

[4] = system: Pseudomonas aeruginosa 1771M; conditions: Pseudomonas aeruginosa, 1771M, 18 h, Muller-Hinton agar, 37° C.
Protocol: as §1, §2

[5] = system: Pseudomonas aeruginosa 1771; conditions: Pseudomonas aeruginosa 1771; Muller-Hinton agar, 37° C., 18 hours; read-out: MIC
Protocol: as §1, §2

[6] = system: Pseudomonas aeruginosa 9027; conditions: Muller-Hinton agar, 37° C., 18 hours, read-out: MIC
Protocol: as §1, §2

Salmonella typhimurium = conditions: Salmonella enterica
Protocol: as §1, §2

[7] = system: Staphylococcus aureus 285; conditions: Staphylococcus aureus, 285, 18 h
Protocol: as §1, §2

[8] = system: Staphylococcus aureus 503
Protocol: as §1, §2

[9] = system: Staphylococcus aureus SG511
Protocol: as §1, §2

[10] = system: Streptococcus faecium MD8b; conditions: Enterococcus faecium, Muller-Hinton agar, 37° C., 18 hours, read-out: MIC
Protocol: as §1, §2

[11] = system: Streptococcus pyogenes 308A; conditions: Muller-Hinton agar, 37° C., 18 hours, read-out: MIC
Protocol: as §1, §2

[12] = system: Streptococcus pyogenes 77A
Protocol: as §1, §2

[13] = Klebsiella aerogenes 1522E, Muller-Hinton agar, 37° C., 18 hours, read-out: MIC
[14] = Salmonella typhimurium, Muller-Hinton agar, 37° C., 18 hours, read-out: MIC
[15] = Staphylococcus aureus 285, Muller-Hinton agar, 37° C., 18 hours, read-out: MIC
[16] = Staphylococcus aureus 503, Muller-Hinton agar, 37° C., 18 hours, read-out: MIC
[17] = Staphylococcus aureus SG511, Muller-Hinton agar, 37° C., 18 hours, read-out: MIC
[18] = Streptococcus pyogenes 77A, Muller-Hinton agar, 37° C., 18 hours, read-out: MIC
[19] = Enterobacter cloacae 1321E, Muller-Hinton agar, 37° C., 18 hours, read-out: MIC
[20] = Escherichia coli 078, Muller-Hinton agar, 37° C., 18 hours, read-out: MIC

Row | SMILES | MIC (Enterobacter cloacae P99) [µg/mL] | MIC (Escherichia coli 1507E; Escherichia coli, 1507E, 18 h) [µg/mL] | MIC (Escherichia coli DC0) [µg/mL] | MIC (Escherichia coli DC2) [µg/mL] | MIC (Escherichia coli TEM) [µg/mL] | MIC [2, 13] [µg/mL] | MIC (Klebsiella oxytoca 1082E) [µg/mL] | MIC [3] [µg/mL] | MIC [4] [µg/mL] | MIC [5] [µg/mL] | MIC [6] [µg/mL] | MIC (Salmonella typhimurium; [14]) [µg/mL] | MIC [7, 15] [µg/mL] | MIC [8, 16] [µg/mL] | MIC [9, 17] [µg/mL] | MIC [10] [µg/mL] | MIC [11] [µg/mL] | MIC [12, 18] [µg/mL] | MIC [1, 19] [µg/mL] | MIC (Escherichia coli 078; [20]) [µg/mL] | other results
1 | NC1CCN(c2cc3c(cc2F)c(=O)c(C(=O)C[N+](=O)[O-])cn3-c2ccc(F)cc2F)C1 (centres unmarked) [Example 9, 1-(2,4-difluorophenyl)-6-fluoro-7-(3-aminopyrrolidin-1-yl)-3-(2-nitroacetyl)-1,4-dihydro-4-oxoquinoline hydrochloride] | < 0.002 | 0.013 | 0.195 | 0.025 | < 0.002 | 0.004 | < 0.002 | 0.098 | 0.049 | 0.195 | 0.391 | 0.007 | 0.025 | 0.013 | 0.025 | 0.195 | 0.195 | 0.195 |  |  | MIC ([1]; Enterobacter cloacae, 1321E, 18 h): 0.007 µg/mL; MIC (Escherichia coli 078; Escherichia coli, 078, 18 h): 0.007 µg/mL
2 | CC1CN(c2cc3c(cc2F)c(=O)c(C(=O)C[N+](=O)[O-])cn3-c2ccc(F)cc2F)CCN1 (centres unmarked) [Example 10, 1-(2,4-difluorophenyl)-6-fluoro-7-(3-methylpiperazin-1-yl)-3-(2-nitroacetyl)-1,4-dihydro-4-oxoquinoline hydrochloride] | 0.049 | 0.098 | 1.56 | 0.391 | 0.098 | 1.56 | 0.025 | 1.56 | 1.56 | 3.12 | 3.12 | 0.049 | 0.391 | 0.391 | 0.391 | 1.56 | 1.56 |  | 0.049 |  | MIC (Escherichia coli 078; Escherichia coli, 078, 18 h): 0.049 µg/mL; MIC ([12]; Streptococcus pyogenes, 77A, 18 h): 0.781 µg/mL
3 | NC1CCN(c2c(F)cc3c(=O)c(C(=O)C[N+](=O)[O-])cn(C4CC4)c3c2Cl)C1 (centres unmarked) [Example 11, 1-cyclopropyl-6-fluoro-8-chloro-7-(3-aminopyrrolidin-1-yl)-3-(2-nitroacetyl)-1,4-dihydro-4-oxoquinoline hydrochloride] | < 0.002 |  | 0.049 | 0.013 | < 0.002 | 0.007 | < 0.002 | 0.195 | 0.025 | 0.098 | 0.195 | < 0.002 | 0.025 | 0.025 | 0.013 | 0.098 | 0.195 | 0.098 | < 0.002 | < 0.002 | MIC (Escherichia coli 1507E; 18 hours, read-out: MIC): < 0.002 µg/mL
4 | N[C@@H]1CCN(c2c(F)cc3c(=O)c(C(=O)C[N+](=O)[O-])cn(C4CC4)c3c2Cl)C1 [Example 12, 1-cyclopropyl-6-fluoro-8-chloro-7-(3-3R-aminopyrrolidin-1-yl)-3-(2-nitroacetyl)-1,4-dihydro-4-oxoquinoline hydrochloride] | 0.004 |  | 0.098 | 0.049 | 0.004 |  | < 0.002 | 0.391 | 0.049 | 0.195 | 0.391 | < 0.002 |  |  |  | 0.098 | 0.391 | 0.195 | < 0.002 | < 0.002 | MIC (Escherichia coli 1507E; 18 hours, read-out: MIC): 0.004 µg/mL; MIC [2]: 0.025 µg/mL; MIC [7]: 0.025 µg/mL; MIC ([8]; Staphylococcus aureus, 503, 18 h): 0.025 µg/mL; MIC ([9]; Staphylococcus aureus, SG511, 18 h): 0.025 µg/mL
5 | C[C@@H]1CN(c2c(F)c(N)c3c(=O)c(C(=O)C[N+](=O)[O-])cn(C4CC4)c3c2F)C[C@H](C)N1 [Example 14, 1-cyclopropyl-5-amino-6,8-difluoro-7-(3,5-cis-dimethylpiperazin-1-yl)-3-(2-nitroacetyl)-1,4-dihydro-4-oxoquinoline hydrochloride] | 0.007 | 0.013 | 0.098 | 0.049 | 0.007 | 0.025 | < 0.002 | 0.781 | 0.195 | 0.391 | 0.781 | < 0.002 | 0.098 | 0.049 | 0.098 | 0.391 | 1.56 | 0.195 | < 0.002 | < 0.002 | 
6 | CNCC1=CCN(c2c(F)cc3c(=O)c(C(=O)C[N+](=O)[O-])cn(C4CC4)c3c2F)C1 [Example 15, 1-cyclopropyl-6,8-difluoro-7-(3-methylaminomethyl-2,5-dihydropyrrol-1-yl)-3-(2-nitroacetyl)-1,4-dihydro-4-oxoquinoline hydrochloride] | 0.004 | 0.007 | 0.098 | 0.013 | 0.004 | 0.013 | < 0.002 | 0.391 | 0.195 | 0.391 | 0.781 | < 0.002 | 0.004 | < 0.002 | < 0.002 | 0.025 | 0.049 | 0.025 | < 0.002 | < 0.002 | 
7 | CCOC(=O)C(C(=O)OCC)C(=O)c1cn(C2CC2)c2cc(N3CCNCC3)c(F)cc2c1=O [Example 18, 1-cyclopropyl-6-fluoro-7-(piperazin-1-yl)-3-(2,2-diethoxycarbonylacetyl)-1,4-dihydro-4-oxoquinoline hydrochloride] | < 0.002 |  | 0.195 | 0.098 | 0.007 | 0.013 | 0.004 | 0.391 | 0.049 | 0.195 | 0.781 |  | 0.391 | 0.391 | 0.195 | 0.781 | 3.12 | 0.781 | < 0.002 | 0.004 | MIC (Escherichia coli 1507E; 18 hours, read-out: MIC): 0.004 µg/mL; MIC (Salmonella typhimurium; TYPHIMURIUM, 18 h): 0.007 µg/mL
